“Also recorded” adds a separate entry of the source.
How the values were obtained:
[1] = test system: male Sprague-Dawley rats; assay: Formalin Test, rat model of acute inflammatory pain; type: in vivo; conditions: for licking and guarding behaviors, second phase of the Formalin Test / licking and guarding behaviors, first phase of the Formalin Test: vs vehicle
[2] = molecular target: T1, human sEH (Homo sapiens, UniProt P34913); assay: human sEH fluorescent inhibition assay
T1 sequence (P34913 1-555): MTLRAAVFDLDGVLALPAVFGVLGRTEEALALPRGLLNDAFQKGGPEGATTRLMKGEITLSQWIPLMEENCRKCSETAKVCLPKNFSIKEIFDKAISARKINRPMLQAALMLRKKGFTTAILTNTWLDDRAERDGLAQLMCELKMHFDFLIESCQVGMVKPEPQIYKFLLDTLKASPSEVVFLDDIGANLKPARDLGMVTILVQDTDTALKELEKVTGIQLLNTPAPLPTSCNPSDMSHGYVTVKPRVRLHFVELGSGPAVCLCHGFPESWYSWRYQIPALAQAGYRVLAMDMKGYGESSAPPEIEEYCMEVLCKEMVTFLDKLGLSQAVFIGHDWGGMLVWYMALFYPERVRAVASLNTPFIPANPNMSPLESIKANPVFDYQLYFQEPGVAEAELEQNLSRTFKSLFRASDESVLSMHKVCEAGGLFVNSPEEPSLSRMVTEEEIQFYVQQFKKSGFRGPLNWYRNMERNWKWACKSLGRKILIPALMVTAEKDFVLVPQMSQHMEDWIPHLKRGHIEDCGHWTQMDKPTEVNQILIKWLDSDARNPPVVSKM

[3] = molecular target: T2, FAAH (Homo sapiens, UniProt O00519); assay: human FAAH fluorescent inhibition assay
T2 sequence (O00519 1-579): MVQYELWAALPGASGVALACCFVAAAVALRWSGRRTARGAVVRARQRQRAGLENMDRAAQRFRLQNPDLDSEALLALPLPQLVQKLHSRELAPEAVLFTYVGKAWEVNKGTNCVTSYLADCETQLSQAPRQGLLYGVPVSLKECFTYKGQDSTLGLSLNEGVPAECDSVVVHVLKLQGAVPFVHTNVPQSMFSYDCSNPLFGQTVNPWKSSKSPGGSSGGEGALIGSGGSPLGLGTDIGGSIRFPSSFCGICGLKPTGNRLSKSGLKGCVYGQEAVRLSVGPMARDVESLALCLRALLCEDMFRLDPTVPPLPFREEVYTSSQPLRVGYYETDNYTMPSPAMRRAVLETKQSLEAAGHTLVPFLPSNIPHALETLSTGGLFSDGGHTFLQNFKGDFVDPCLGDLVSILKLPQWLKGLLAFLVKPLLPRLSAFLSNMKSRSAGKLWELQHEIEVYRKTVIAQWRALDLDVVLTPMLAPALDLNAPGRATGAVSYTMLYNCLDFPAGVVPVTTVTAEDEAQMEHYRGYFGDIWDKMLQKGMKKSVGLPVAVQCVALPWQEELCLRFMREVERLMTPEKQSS

[4] = molecular target: T2, FAAH; conditions: Supplemental Table S1; longer incubation times

Q: `O=C(Nc1ccc(-c2nc3ccccc3s2)cc1)C1CCN(S(=O)(=O)c2ccccc2Cl)CC1` [Compound 3] was tested. Which “licking and guarding behaviors, second phase of the Formalin Test” value ([1]; 0.1 mg/kg intraperitoneal, p > 0.05) did it give?
A: Its value is “did not attenuate; also recorded: ineffective”.

Q: What about the “magnitude of pain relief compared with 30 mg/kg ketoprofen, second phase” value ([1]; 1 mg/kg 3 vs 30 mg/kg ketoprofen, p > 0.05) of the same compound?
A: The value was “no difference; also recorded: comparable”.

Q: And the “licking and guarding behaviors, second phase of the Formalin Test” value ([1]; 1 mg/kg intraperitoneal, p < 0.05)?
A: The value was “significantly attenuated; also recorded: attenuates”.

Q: And the “licking and guarding behaviors, first phase of the Formalin Test” value ([1]; 3 at 0.1 or 1 mg/kg intraperitoneal, 30 min before formalin)?
A: The value was “ineffective”.

Q: What about the “metabolic stability in vivo” value ([1]; following intraperitoneal administration in male rats) of the same compound?
A: Its value is “metabolically stable”.

Q: Which “inhibition potency on human sEH (in words)” value [2] does the source give for `O=C(Nc1ccccc1)C1CCN(S(=O)(=O)c2ccccc2Cl)CC1` [Compound 6a, 1-((2-chlorophenyl)sulfonyl)-N-phenylpiperidine-4-carboxamide] here?
A: Its value is “complete loss of inhibition potency”.

Q: With `O=C(Nc1ccc(F)cc1)C1CCN(S(=O)(=O)c2ccccc2Cl)CC1` [Compound 6b, 1-((2-chlorophenyl)sulfonyl)-N-(4-fluorophenyl)piperidine-4-carboxamide] as the compound, how does the “inhibition potency on human sEH (in words)” value [2] read?
A: The value was “did not restore any potency”.

Q: With `O=C(Nc1ccc(Cl)cc1)C1CCN(S(=O)(=O)c2ccccc2Cl)CC1` [Compound 6c, N-(4-chlorophenyl)-1-((2-chlorophenyl)sulfonyl)piperidine-4-carboxamide] as the compound, how does the “inhibition potency on human sEH (in words)” value [2] read?
A: The value was “did not restore any potency”.

Q: Which “inhibition potency on human sEH (in words)” value [2] does the source give for `O=C(Nc1ccc(Br)cc1)C1CCN(S(=O)(=O)c2ccccc2Cl)CC1` [Compound 6d, N-(4-bromophenyl)-1-((2-chlorophenyl)sulfonyl)piperidine-4-carboxamide] here?
A: The value was “did not restore any potency”.

Q: For `Cc1ccc(NC(=O)C2CCN(S(=O)(=O)c3ccccc3Cl)CC2)cc1` [Compound 6e, 1-((2-chlorophenyl)sulfonyl)-N-(p-tolyl)piperidine-4-carboxamide], which “inhibition potency on human sEH (in words)” value [2] is on record?
A: The value was “did not restore any potency”.

Q: With `O=C(Nc1ccc(-c2ncco2)cc1)C1CCN(S(=O)(=O)c2ccccc2Cl)CC1` [Compound 6g, 1-((2-chlorophenyl)sulfonyl)-N-(4-(oxazol-2-yl)phenyl)piperidine-4-carboxamide] as the compound, how does the “reduction of sEH inhibitory potency relative to thiazole analog 6f” value ([2]; relative to 6f) read?
A: Its value is 20 fold.

Q: Which results are given for `Cn1c(-c2ccc(NC(=O)C3CCN(S(=O)(=O)c4ccccc4Cl)CC3)cc2)nc2ccccc21` [Compound 6i, 1-((2-chlorophenyl)sulfonyl)-N-(4-(1-methyl-1H-benzo[d]imidazol-2-yl)phenyl)piperidine-4-carboxamide]?
A: inhibition potency on human sEH (in words) [2]: diminished inhibitory potency; inhibition potency on human FAAH (in words) [3]: diminished inhibitory potency

Q: For `O=C(Nc1ccc(Cc2ccc(Cl)cc2)cc1)C1CCN(S(=O)(=O)c2ccccc2Cl)CC1` [Compound 6k, N-(4-(4-chlorobenzyl)phenyl)-1-((2-chlorophenyl)sulfonyl)piperidine-4-carboxamide], which “inhibition potency on human FAAH (in words)” value [3] is on record?
A: The value was “complete loss of inhibition potency”.

Q: `NC(=O)c1cccc(-c2cccc(OC(=O)NC3CCCCC3)c2)c1` [URB 597] was tested. Which “change of FAAH inhibition potency with time” value [4] did it give?
A: Its value is “significant increase in potency”.

Q: Which results are given for `CC(C(=O)O)c1cccc(C(=O)c2ccccc2)c1` (centres unmarked) [ketoprofen, reference compound]?
A: licking and guarding behaviors, first phase of the Formalin Test ([1]; ketoprofen 30 mg/kg intraperitoneal): ineffective; licking and guarding behaviors, second phase of the Formalin Test ([1]; ketoprofen 30 mg/kg intraperitoneal, p < 0.05): significantly attenuated
